Experimental data reported in patent US12551463B2, “Dosing of a Bruton's tyrosine kinase inhibitor” (Loxo Oncology, Inc., priority 2019, dated 2026).
“Also recorded” adds a separate entry of the source.

How the values were obtained:
[1] = Human clinical trials of BTK-I: adverse events in the overall safety population of 323 patients; type: in vivo
Method: (§1) (Mato A., et al., “Toxicities and Outcomes of 616 Ibrutinib-Treated Patients in the United States: A Real-World Analysis”, Haematologica, 2018, 103(5), 874-879.) Between Mar. 21, 2019 and Sep. 27, 2020, across 7 dose levels ranging from 25 mg once daily (QD) to 300 mg QD in 323 patients, the only treatment-emergent adverse events regardless of attribution or grade seen in ≥10% of patients (n=323) were fatigue (n=65, 20%), diarrhea (n=55, 17%), and contusion (n=42, 13%). In 121 efficacy-evaluable cBTKi-treated chronic lymphocytic leukemia (CLL) patients (median prior lines=4), overall response rate (ORR) was 62% (95% CI: 53-71), rising to 84% in patients followed for ≥10 months.
Atrial arrythmias and hemorrhage are two important AEs associated with covalent BTK inhibitor discontinuation. […] Only 1 patient experienced a grade 3 hemorrhage, a subarachnoid bleed sustained during a bicycle accident. In total, 18 patients had discontinued a prior BTK inhibitor for cardiovascular toxicity (in 15) or hemorrhage (3). None experienced recurrence of these events on BTK-I.

[2] = system: CLL/SLL, MCL, Waldenstrom's macroglobulinemia and follicular lymphoma patients; experiment: Human clinical trials of BTK-I: overall response rate in efficacy-evaluable patients; type: in vivo
Method: as §1

[3] = system: CLL/SLL and B-cell NHL; experiment: Phase 1/2 clinical study of oral BTK-I monotherapy, all patients; type: in vivo, human
Text: (§2) The study is an open-label, multi-center study of oral BTK-I to evaluate safety and efficacy as monotherapy and as part of combination therapy in patients with CLL/SLL and NHL who have failed or are intolerant to standard of care. This study includes monotherapy as well as combination treatment parts. The monotherapy part includes Phase 1 dose escalation and dose expansion as well as Phase 2. The combination therapy part is a Phase 1b (safety assessment and expansion) of BTK-I in combination with venetoclax, with or without anti-CD20 therapy. Phase 1 dose escalation will proceed prior to start of Phase 1b or Phase 2. Once a recommended Phase 2 dose (RP2D) is identified in Phase 1, enrollment can commence to the Phase 1b combination therapies and Phase 2 monotherapy cohorts.
(§3) The primary objectives of the Phase 1 Dose Escalation and Expansion part of the study is to determine the maximum tolerated dose (MTD)/RP2D of oral BTK-I in patients with previously treated CLL/SLL and B-cell NHL.
(§4) Patients are enrolled with histologically confirmed CLL/SLL or B-cell NHL who have failed or are intolerant to at least two prior standard of care regimens given in combination or sequentially or have received at least one prior BTK inhibitor-containing regimen when BTK inhibitor is approved in first line.
(§5) BTK-I is administered in oral tablet form. Dose escalation will follow a 3+3 design starting with a 25 mg QD dose (followed by 50 mg QD (dose level cohort 2), 100 mg QD (dose level cohort 3), 150 mg QD (dose level cohort 4), 200 mg QD (dose level cohort 5), 250 mg QD (dose level cohort 6), and 300 mg QD (dose level cohort 7)). Cycle length will be 28 days. The drug limiting toxicity (DLT) period will be 28 days, commencing with the first dose of BTK-I.
(§6) The primary objective of the Phase 2 is to assess the primary anti-tumor activity of BTK-I based on overall response rate (ORR) and as assessed by the Independent Review Committee. […]
(§7) Dosing during Phase 2 will be at the RP2D of 200 mg QD. […] The dose (and schedule) chosen for Phase 2 may be changed by the SRC based on emerging data (e.g., PK, safety, and/or efficacy) as long as the new dose is not greater than the highest dose that has a DLT <33% and is determined to be safe by the SRC in Phase 1. […]

[4] = system: MCL; experiment: Phase 1/2 clinical study, mantle cell lymphoma patients; type: in vivo, human
Text: as §2, §3, §4, §5
The primary objective of the Phase 2 is to assess the primary anti-tumor activity of BTK-I based on overall response rate (ORR) and as assessed by the Independent Review Committee.
At the RP2D up to ˜600 patients with CLL/SLL or NHL will be enrolled to one of the following cohorts: • Cohort 1: Non-blastoid MCL patients treated with a prior BTK-inhibitor. • Cohort 2: CLL/SLL patients treated with 2 or more prior regimens, including a BTK inhibitor-containing regimen. • Cohort 3: CLL/SLL patients with no prior therapy. • Cohort 4: CLL/SLL patients treated with prior therapy, BTK inhibitor naive. • Cohort 5: WM patients treated with a prior BTK inhibitor containing regimen. • Cohort 6: MZL patients treated with a prior BTK inhibitor containing regimen. • Cohort 7: (Not otherwise specified) defined as CLL/SLL or NHL not otherwise specified in Cohorts 1 through 6, inclusive of CLL/SLL or NHL, Richter's transformation, blastoid MCL, and patients with history of CNS involvement or primary CNS lymphoma.
Dosing during Phase 2 will be at the RP2D of 200 mg QD. The cycle length will be 28 days. BTK-I will be administered to the Phase 2 patients in oral tablet form at the RP2D. The dose (and schedule) chosen for Phase 2 may be changed by the SRC based on emerging data (e.g., PK, safety, and/or efficacy) as long as the new dose is not greater than the highest dose that has a DLT <33% and is determined to be safe by the SRC in Phase 1. If the RP2D is changed based on emerging data, patients enrolled to Phase 2 at a different dose may have the dose changed to the new dose.

[5] = system: follicular lymphoma; experiment: Phase 1/2 clinical study, follicular lymphoma patients; type: in vivo, human; settings: among 8 efficacy-evaluable patients
Text: as §2, with “cohorts. […]” for “cohorts.”
as §6, §7

[6] = system: DLBCL; experiment: Phase 1/2 clinical study, DLBCL patients; type: in vivo, human
Text: as §2, with “cohorts. […]” for “cohorts.”
as §6, §7

[7] = 25 mg QD to 300 mg QD, n=323, regardless of attribution or grade

Q: For `COc1ccc(F)cc1C(=O)NCc1ccc(-c2nn([C@@H](C)C(F)(F)F)c(N)c2C(N)=O)cc1` [BTK-I, (S)-5-amino-3-(4-((5-fluoro-2-methoxybenzamido)methyl)phenyl)-1-(1,1,1-trifluoropropane-2-yl)-1H-pyrazole-4-carboxamide], which “treatment-emergent adverse event contusion, patients” value [1, 7] is on record?
A: 13%

Q: And the “treatment-emergent adverse event diarrhea, patients” value [1, 7]?
A: 17%

Q: And the “treatment-emergent adverse event fatigue, patients” value [1, 7]?
A: 20%

Q: What about the “recurrence of cardiovascular toxicity or hemorrhage on BTK-I” value ([1]; 18 patients who had discontinued a prior BTK inhibitor for cardiovascular toxicity (15) or hemorrhage (3)) of the same compound?
A: None

Q: And the “permanent discontinuations for drug-related adverse events, patients” value ([1]; n=323 (in 5))?
A: 1.5%

Q: What about the “dose reductions for drug-related adverse events, patients” value ([1]; n=323 (in 7)) of the same compound?
A: 2.2%

Q: And the “dose interruptions for drug-related adverse events, patients” value ([1]; n=323 (in 26))?
A: 8.0%

Q: And the “atrial fibrillation/flutter, patients” value ([1]; overall safety population of 323 patients, 2 patients, both grade 2, considered unrelated)?
A: 0.6%

Q: And the “grade 3 hemorrhage” value ([1]; overall safety population of 323 patients, subarachnoid bleed during a bicycle accident)?
A: 1 patient

Q: And the ORR ([2]; 52 efficacy-evaluable cBTKi-treated MCL patients, 95% CI: 38-66)?
A: 52%

Q: And the “overall response rate (ORR)” value ([2]; 121 efficacy-evaluable cBTKi-treated CLL patients, median prior lines=4, 95% CI: 53-71)?
A: 62%

Q: What about the ORR ([2]; CLL/SLL patients with BTK C481-mutant disease (17/24)) of the same compound?
A: 71%

Q: What about the ORR ([2]; CLL/SLL patients with BTK-wildtype disease (43/65)) of the same compound?
A: 66%

Q: What about the ORR ([2]; CLL/SLL patients with cBTKi intolerance (22/42)) of the same compound?
A: 52%

Q: And the ORR ([2]; CLL/SLL patients with prior cBTKi resistance (53/79))?
A: 67%

Q: What about the ORR ([2]; Waldenstrom's macroglobulinemia (WM), n=19) of the same compound?
A: 68%

Q: What about the “overall response rate (ORR)” value ([2]; cBTKi-treated CLL patients followed for ≥10 months) of the same compound?
A: 84%

Q: What about the ORR ([2]; follicular lymphoma (FL), n=8) of the same compound?
A: 50%

Q: And the “responding patients who remain progression-free” value ([2]; of 117 responding CLL or MCL patients)?
A: all but 8

Q: And the “responses at first dose level” value ([3]; 25 mg QD)?
A: Responses were observed

Q: And the “clinical activity/efficacy across dose levels” value ([3]; 7 dose levels, 25 mg to 300 mg QD)?
A: demonstrated activity across all dose levels; also recorded: Efficacy was observed at all dose levels

Q: What about the “treated patients remaining on BTK-I” value ([3]; 237 of 323 at data cut) of the same compound?
A: 73%

Q: And the “responses in remaining efficacy-evaluable patients” value ([3]; remaining 39 patients (other B-cell malignancies))?
A: 8

Q: What about the ORR ([4]; 52 patients with prior covalent BTK inhibitor, 95% CI: 38-66) of the same compound?
A: 52%

Q: And the ORR ([4]; 56 efficacy-evaluable MCL patients, 95% CI: 38-65)?
A: 52%

Q: What about the “median time to first response” value ([4]; MCL) of the same compound?
A: 1.8 months

Q: And the “patients remaining on BTK-I” value ([4]; all MCL patients)?
A: 57%

Q: What about the “responding patients who discontinued treatment” value ([4]; of 29 responders (4 PD, 1 in CR)) of the same compound?
A: 5

Q: What about the “CR, patients” value ([4]; of 56 efficacy-evaluable) of the same compound?
A: 14

Q: What about the “NE, patients” value ([4]; of 56 efficacy-evaluable) of the same compound?
A: 5

Q: What about the “PD, patients” value ([4]; of 56 efficacy-evaluable) of the same compound?
A: 12

Q: What about the “PR, patients” value ([4]; of 56 efficacy-evaluable) of the same compound?
A: 15

Q: And the responses ([4]; patients with blastoid variant MCL)?
A: 2 of 4

Q: And the responses ([4]; patients with prior CAR-T)?
A: 2 of 2

Q: What about the responses ([4]; prior autologous or allogeneic transplant (9/14)) of the same compound?
A: 64%

Q: What about the patients with responses [5] of the same compound?
A: 4

Q: What about the responses/patients [6] of the same compound?
A: 6/25
